In patent US20170209473A1, “ADIPONECTIN SECRETION REGULATOR” (THE UNIVERSITY OF TOKYO, priority 2014, published 2017):

What was measured:
Assay type in all cases: cell-based, Mouse
[1] = tested on: adiponectin monomers, trimers, hexamers and multimers; experiment: Adiponectin multimerization state, non-reducing SDS-PAGE / Western blotting of culture supernatant; settings: FIG. 2
Procedure: (§1) Mouse 3T3-L1 fibroblasts in a confluent state were induced with insulin to differentiate into adipocytes. The cells were then cultured for 48 hours in a DMEM medium containing 10% FBS. The cells were then cultured for 24 hours in a serum-free DMEM medium including L-fucose and/or D-glucose at the concentrations for each test section indicated in Table 1.
The cell culture supernatant in the same test sections as in Test Example 1 was collected, equivalent samples for each test section were subjected to non-reducing SDS-PAGE, and adiponectin monomers appearing at a molecular weight position of approximately 30 kDa, trimers appearing at a position of approximately 100 kDa, hexamers appearing at a position of approximately 200 kDa, and multimers appearing at higher molecular weight positions were detected by a Western blotting method using specific antibodies for adiponectin. A near-infrared fluorescence imager (“Odyssey Fc,” manufactured by LI-COR, Inc.) was used for the detection, and the various multimerization states were compared.

[2] = tested on: nuclear-receptor-type transcription factor PPAR-gamma; experiment: PPAR-gamma expression in adipocytes, Western blotting; settings: 3T3-L1-derived adipocytes, 24 hours, FIG. 1
Procedure: as §1
(§2) After culturing, the culture supernatant was collected and mixed with an equal amount of reducing SDS-PAGE (polyacrylamide gel electrophoresis) loading buffer and held for 10 minutes at 100° C., a 5-10-μL sample for each lane was subjected to SDS-PAGE, and the nuclear-receptor-type transcription factor PPAR-gamma, actin as an internal standard protein, and adiponectin were detected by a Western blotting method using specific antibodies for each in accordance with the usual method. A near-infrared fluorescence imager (“Odyssey Fc,” manufactured by LI-COR, Inc.) was used for the detection, and the relative expression levels of each protein were compared.

adiponectin = experiment: Adiponectin expression by adipocytes, reducing SDS-PAGE / Western blotting of culture supernatant; settings: 3T3-L1-derived adipocytes, 24 hours serum-free DMEM, FIG. 1
Procedure: as §1, §2

[3] = 0.1 w/v % glucose + 0.1 w/v % L-fucose (test section 2) vs test section 1, tendency more pronounced at low glucose
[4] = 0.45 w/v % glucose + 0.1 w/v % L-fucose (test section 4) vs test section 3

With `C[C@H](O)[C@@H](O)[C@@H](O)[C@H](O)C=O` [L-fucose] the adiponectin multimers [1, 3] was “increased”, the “incidence of adiponectin monomers, trimers, and hexamers” value [1, 3] was “reduced” and the adiponectin multimers [1, 4] was “increased”. For the same molecule, the “incidence of adiponectin monomers, trimers, and hexamers” value [1, 4] was “reduced”, the “expression level of PPAR-gamma” value ([2]; 0.1 w/v % D-glucose + 0.1 w/v % L-fucose (test section 2) vs test section 1) was “almost no change” and the “expression level of PPAR-gamma” value ([2]; 0.45 w/v % D-glucose + 0.1 w/v % L-fucose (test section 4) vs test section 3) was “slight decrease”. The “expression level of adiponectin” value (adiponectin; 0.1 w/v % glucose + 0.1 w/v % fucose (test section 2) vs test section 1 without fucose) was “tendency for the expression level of adiponectin to decrease” and the “expression level of adiponectin” value (adiponectin; 0.45 w/v % glucose + 0.1 w/v % fucose (test section 4) vs test section 3 without fucose) was “tendency for the expression level of adiponectin to decrease”.
